Results: patent US9974305B2, “Fungicidal or bactericidal composition, and method for controlling diseases” (NISSAN CHEMICAL INDUSTRIES, LTD., priority 2014, dated 2018)

Tests used:
Assay type in all cases: in vivo
[1] = tested on: wheat powdery mildew (Blumeria graminis); assay: Efficacy test on wheat powdery mildew, seed treatment (Test Example 10); conditions: wheat (Norin 61)
Experimental: An agent comprising the following compound listed in Table 2 (active ingredient A) and the compound listed in Table 11 (H35: active ingredient B) as active ingredients, was prepared in accordance with the above Formulation Example. This agent was diluted with water to a predetermined concentration to obtain a test solution. A predetermined amount of test solution was put in a glass bottle of 5 ml, and 0.5 g (approximately 15 grains) of wheat seeds (variety: Norin 61) were added, stirred and air-dried. In each pot with a diameter of 7 cm and having soil put therein, 3 grains were seeded and grown for 14 days. To the wheat seedlings grown to the 1-leaf stage, a spore suspension (100,000 cfu/ml) of wheat powdery mildew (Blumeria graminis) was spray-inoculated. After placing the pot in a glass greenhouse for 10 days, the ratio of the formed lesion area occupying the inoculated leaves was measured, and the preventive value was calculated in accordance with the following formula. Preventive value=[1−(treated plot lesion area ratio/untreated plot lesion area ratio)]×100
(§1) Further, from the preventive value at each agent concentration, synergy was calculated by using the Colby method (Colby S. R. 1976, Weeds 15, 20-22).

[2] = tested on: rice sheath blight fungus (Rhizoctonia solani); assay: Efficacy test on rice sheath blight, spray treatment and prevention test (Test Examples 5-6); conditions: single compound 250 ppm, lesion height
Experimental: An agent comprising the following compound listed in Table 2 (active ingredient A) and the compound listed in Table 6 (C17: active ingredient B) as active ingredients, was prepared in accordance with the above Formulation Example. The agent was diluted with water to a predetermined concentration to obtain a test solution. Then, in a plastic pot of 90 cm^3, rice (Nipponbare) was seeded by 5 grains in one place, and to the grown seedlings in 4 seedling phase, the test solution was applied by a spray gun in an amount of 5 ml per pot, for treatment.
One day after the treatment, 1 g of mycelium flora of rice sheath blight fungus (Rhizoctonia solani) cultured in bran medium, was put by […] to a close-to-ground part of seedlings, and the pot was placed in a moist chamber set in temperature of 25° C. and humidity more than 95% RH for eight days. The height of the lesions which appeared in the highest position from the close-to-ground part (lesion height) was investigated, and the preventive value was calculated in accordance with the following formula. Preventive value=[1−(treated plot lesion height/untreated plot lesion height)]×100
(§2) Further, from the preventive value for each agent concentration, synergy was calculated by using the Colby method (Colby S. R. 1976, Weeds 15, 20-22).
Using the following compound listed in Table 2 (active ingredient A) and the compound listed in Table 6 (C17: active ingredient B) as active ingredients, a preventive test on rice sheath blight was conducted in accordance with the above Test Example 5.

[3] = tested on: wheat glume blotch (Leptosphaeria nodorum); assay: Efficacy test on wheat glume blotch, seed treatment (Test Example 9); conditions: single compound
Experimental: An agent comprising the following compound listed in Table 2 (active ingredient A) and the compound listed in Table 11 (H35: active ingredient B) as active ingredients, was prepared in accordance with the above Formulation Example. This agent was diluted with water to a predetermined concentration to obtain a test solution. A predetermined amount of the test solution was put in a glass bottle of 5 ml, and 0.5 g (approximately 15 grains) of wheat seeds (variety: Haruyutaka) were added, stirred and air-dried. In each pot with a diameter of 7 cm having soil put therein, 3 grains were seeded and grown for 14 days. To seedlings of the wheat (variety: Haruyutaka) grown to a 1-leaf stage, a spore suspension (100,000 cfu/ml) of wheat glume blotch (Leptosphaeria nodorum) was spray-inoculated, and the pot was placed in a moist chamber set in temperature of 20° C. and humidity more than 95% RH for 48 hours. After placing the pot for 7 days in a glass greenhouse, the ratio of the formed lesion area occupying the inoculated leaves was measured, and the preventive value was calculated in accordance with the following formula. Preventive value=[1−(treated plot lesion area ratio/untreated plot lesion area ratio)]×100
as §1

[4] = tested on: wheat glume blotch (Leptosphaeria nodorum); assay: Efficacy test on wheat glume blotch, spray treatment and prevention test (Test Example 8); conditions: spray, lesion area ratio; for pest or weed control at 3 ppm / pest or weed control at 10 ppm: Parastagonospora nodorum, read-out: Preventive value
In short: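 Wheat seedlings (Haruyutaka, 1-leaf stage) sprayed with diluted two-component formulation; one day later spray-inoculated with L. nodorum spores (1×100,000 cfu/ml), 48 h at 20° C, >95% RH, then 7 days greenhouse. Lesion area ratio gives preventive value versus untreated; synergy assessed by Colby method.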

[5] = tested on: cucumber downy mildew (Pseudoperenospora cubensis); assay: Efficacy test on cucumber downy mildew, spray treatment and prevention test (Test Example 7); conditions: single compound 250 ppm; lesion area ratio
Experimental: An agent comprising the following compound listed in Table 2 (active ingredient A) and the compound listed in Table 6 (C40: active ingredient B) as active ingredients, was prepared in accordance with the above Formulation Example. This agent was diluted with water to a predetermined concentration to obtain a test solution. Then, to seedlings of cucumber (variety: Sagami-hanjiro) at 1.5-leaf stage grown in a pot with a diameter of 7 cm, the test solution was applied by a spray gun in an amount of 10 ml per pot, for treatment. One day after the treatment, a spore suspension (2×100,000 cfu/ml) of cucumber downy mildew (Pseudoperenospora cubensis), was spray-inoculated, and the pot was placed in a moist chamber set in temperature of 20° C. and humidity more than 95% RH for 24 hours. After placing the pot in a glass greenhouse for 6 days, the ratio of the formed lesion area occupying the inoculated leaves was measured, and the preventive value was calculated in accordance with the following formula. Preventive value=[1−(treated plot lesion area ratio/untreated plot lesion area ratio)]×100
as §2

[6] = processing amount 5 mg/1 g seed
[7] = processing amount 10 mg/1 g seed

Row | SMILES | Preventive value [1, 6] | Preventive value [1, 7] | Preventive value ([2]; Test Example 5) | Preventive value [3, 6] | Preventive value [3, 7] | pest or weed control at 3 ppm ([4]; single compound 3 ppm) | pest or weed control at 10 ppm ([4]; single compound 10 ppm) | Preventive value [5] | Preventive value ([2]; Test Example 6) | Preventive value ([4]; single compound 3 ppm) | Preventive value ([4]; single compound 10 ppm)
1 | CC#Cc1cnc(/C(CNC(=O)c2cn(C)nc2C(F)F)=N\OC(C)C)c(Cl)c1 [Compound No. 20, (Z)—N-[2-[3-chloro-5-(1-propynyl)pyridin-2-yl]-2-(isopropoxyimino)ethyl]-3-difluoromethyl-1-methyl-1H-pyrazole-4-carboxamide] | 100 | 100 | 0 | 90 | 99 | 80% | 85% | 5 |  |  | 
2 | CC(C)O/N=C(/CNC(=O)c1cn(C)nc1C(F)F)c1ncc(C#CC2CC2)cc1Cl [Compound No. 25, (Z)—N-[2-[3-chloro-5-(cyclopropylethynyl)pyridin-2-yl]-2-(isopropoxyimino)ethyl]-3-difluoromethyl-1-methyl-1H-pyrazole-4-carboxamide] | 100 | 100 |  | 83 | 95 | 75% | 85% | 5 | 8 |  | 
3 | CC(C)ON=C(CNC(=O)c1ccccc1C(F)(F)F)c1ncc(C(F)(F)F)cc1Cl [compound 14] | 97 | 100 | 6 | 41 | 82 |  |  | 0 |  | 75 | 80
4 | COc1c(Cl)cnc(C(CNC(=O)c2ccccc2C(F)(F)F)=NOC(C)C)c1Cl [Compound No. 9] | 100 | 100 |  | 75 | 77 |  |  | 0 | 10 | 60 | 75
5 | CON=C(CNC(=O)c1cn(C)nc1C(F)F)c1ncc(C#CC(C)(C)C)cc1Cl [compound 28] | 100 | 100 | 9 | 77 | 88 |  |  | 5 |  | 60 | 85
6 | CC(C)O/N=C(/CNC(=O)c1ccccc1C(F)(F)F)c1ncc(Cl)cc1Cl [Compound No. 4] | 97 | 99 | 7 | 70 | 75 |  |  | 0 |  | 40 | 65
